Source: BigSolDB 2.1

COc1ccc(CN2CCNCC2)c(OC)c1OC.Cl.Cl
solubility (mole fraction)
Settings	278.15 K	283.15 K	288.15 K	293.15 K	298.15 K	303.15 K	308.15 K	313.15 K	318.15 K	323.15 K
in 1,4-dioxane	–	–	5.08e-05	6.07e-05	7.16e-05	8.25e-05	9.48e-05	0.000109	0.000124	0.000141
in 2-butanone	6.02e-06	6.56e-06	7.1e-06	7.72e-06	8.35e-06	9.05e-06	9.85e-06	1.06e-05	1.15e-05	1.24e-05
in DMF	0.00053	0.000566	0.000609	0.000658	0.000705	0.000754	0.000803	0.000857	0.000913	0.000975
in acetone	6.23e-06	6.82e-06	7.47e-06	8.16e-06	8.85e-06	9.62e-06	1.03e-05	1.11e-05	1.2e-05	1.3e-05
in acetonitrile	1.23e-05	1.37e-05	1.49e-05	1.63e-05	1.77e-05	1.9e-05	2.04e-05	2.19e-05	2.38e-05	2.58e-05
in ethanol	0.000583	0.000652	0.000727	0.000805	0.00089	0.000987	0.00109	0.0012	0.00132	0.00145
in ethyl acetate	0.00201	0.00209	0.00217	0.00226	0.00234	0.00244	0.00254	0.00264	0.00275	0.00286
in isopropanol	7.61e-05	9.15e-05	0.00011	0.000133	0.000157	0.000184	0.000215	0.000247	0.000287	0.000333
in methanol	0.00353	0.00402	0.00458	0.00524	0.00603	0.00682	0.00777	0.00882	0.00993	0.0111
in n-butanol	0.000131	0.000153	0.000177	0.000201	0.000232	0.000263	0.000297	0.000336	0.000383	0.000432
in n-propanol	0.000193	0.000217	0.000246	0.000281	0.000322	0.000366	0.000413	0.000464	0.000521	0.000581
in toluene	7.02e-07	8.19e-07	9.58e-07	1.12e-06	1.33e-06	1.57e-06	1.83e-06	2.12e-06	2.43e-06	2.76e-06
